These results are taken from patent publication US9945853B2, “Extracellular mitochondrial components for detecting inflammatory reactions and conditions” (UNIVERSITE LAVAL, priority 2013, dated 2018).

Assay [1] relates to thrombin-activated platelets. Kind of assay: Extracellular mitochondria release from thrombin-activated platelets with cytoskeleton inhibitors (hs-FCM). Format: cell-based, human. The note with it: addition of actin or tubulin polymerization inhibitors, n=4. An excerpt:
(§1) A forward scatter (FSC) coupled to a photomultiplier tube (PMT) “small particles option” (FSC-PMT) (rather than the usual diode) with a 488-nm solid state, 100-mW output blue laser (rather than the conventional 20 mW), a 633-nm HeNe, 20-mW output red laser, and a 405-nm solid state diode, 50-mW output violet laser were mounted on the BD FACS Canto II Special Order Research Product used for all our studies (BD Biosciences). The chosen parameters were optimal to detect particles from 100 to 3 500 nm simultaneously on the FSC-PMT.
(§2) Platelets were labeled with MitoTracker Deep Red™ and PKH67 Green Fluorescent Cell Linker as described above. Platelets were washed and then were left nonactivated or activated using heat-aggregated immunoglobulin (Ig)G (HA-IgG), 1 mg/mL; thrombin, 0.5 U/mL; collagen, 5 μg/mL; for 4 hours at room temperature. Platelets ([…]) were then diluted into […] phosphate-buffered saline (PBS) and analyzed by flow cytometry. For extracellular mitochondria release experiments, platelets were treated with cytochalasin B ([…]; Sigma-Aldrich), cytochalasin D ([…]; Sigma-Aldrich), cytochalasin E ([…]; Cayman Chemical), latrunculin A ([…]; Cayman Chemical), or nocodazole ([…]; Sigma-Aldrich). To process the data quantitatively, 100 000 polystyrene microspheres ([…] diameter; Polysciences) were added to each tube, and 1000 microspheres were acquired.

Assay [2] relates to human neutrophils. Kind of assay: Stimulation of neutrophils for leukotriene generation (5-LO products, HPLC). Type of assay: cell-based. The note with it: human neutrophils with extracellular mitochondria and sPLA2-IIA; pyrrophenone 100 nM. The method, then: Human neutrophils were primed and stimulated for leukotriene biosynthesis as previously described (Cloutier et al. 2013, Flamand et al. 2006). To evaluate sPLA2-IIA mediated release of arachidonic acid, cPLA2α inhibitor pyrrophenone (100 nM) was added 5 min before stimulation. Stimulation was initiated by the addition of 5 μl of pre-treated mitochondria, or control, to prime neutrophils. The reaction was stopped by the addition of 500 μl of cold MeOH:CH3CN (1:1) containing 12.5 ng of prostaglandin B2 as internal standard. Samples were then processed and analyzed by reversed-phase high performance liquid chromatography using on-line extraction as previously described (Borgeat et al. 1990).

The next assay deals with platelets. Briefly: Platelet stimulation and release of freeMitos, mitoMPs and MPs (hs-FCM). Format: cell-based, human. The note with it: platelets stimulated 4 hours at room temperature, vs supernatant from resting platelets, n=4.
Text: as §1, §2

Assay [3] deals with human neutrophils. Briefly: NET quantification. Format: cell-based. The method, then: Activated human neutrophils (5×10^6 cells/ml) were incubated in the presence of labeled mitochondria (5×10^5 mitochondria/ml, MitoTracker® Deep Red, 100 nm) and sPLA2-IIA (0.1 μg/ml) or diluent (PBS) for 2 h at 37° C. Cells were then fixed with 2% PFA and DNA staining was performed with Hoestch 33342 (1 μg/ml, Invitrogen). Cells were cytospinned on a slide at 500 RPM for 3 min. NET formation (%) was determined by the following equation: (NETs/PMN counted)*100. Preliminary experiments confirmed that mtDNA is readily distinguished from neutrophils NETs.

Assay [4] has as its system mitochondria. Kind of assay: sPLA2-IIA binding to mitochondria (flow cytometry, anti-TOM22 co-elution and immunoblot). On the set-up: species or system mouse. The note with it: 30 min on ice, 5 mM CaCl2. As to the method: Mitochondria (10^6) from mouse liver were labeled with 100 nM of MitoTracker® Deep Red and incubated with 10 ng of sPLA2-IIA Alexa Fluor 488 (final volume 10 μl) in HBSS with 5 mM of CaCl2 for 30 min on ice. Samples were diluted and the presence of sPLA2-IIA Alexa Fluor 488 on fluorescent mitochondria was analyzed by flow cytometry.
Interaction between mitochondria and sPLA2-IIA was also assessed by immunolabeling and co-elution. Unstained mouse liver mitochondria (10^7) in HBSS with 5 mM CaCl2 were incubated with 250 ng of sPLA2-IIA (final volume 100 μl) for 30 min on ice. Anti-TOM22 microbeads labeling was then performed as described above and processed on a magnet for mitochondria isolation. Mitochondria were then pelleted and lysed in 1× lysis buffer. Samples were electrophoresed, transferred onto membranes and incubated in 0.2% milk/TBS-Tween solution containing rabbit anti-sPLA2-IIA antibody (1/1000, Cayman Chemical) for 48 h at 4° C. The membrane was washed, treated with Peroxidase-AffiniPure anti-rabbit-IgG (Jackson ImmunoResearch) and reactive proteins were visualized by chemiluminescence (Perkin Elmer).
(A flow cytometer gives signals particle by particle.)

Another assay has as its system mitochondrial membranes. Briefly: Mass spectrometry of lysophospholipids and fatty acids released from mitochondrial membranes by sPLA2-IIA. Type of assay: biochemical, mouse. The note with it: 0.1 and 1 μg/ml sPLA2-IIA, 37° C., 0.5 and 6 h. As to the method: Mitochondria were incubated in the presence of 0.1 μg/ml and 1 μg/ml of human recombinant sPLA2-IIA at 37° C. for 0.5 and 6 h. Mitochondria were also incubated in the absence of sPLA2-IIA to determine the content of basal free fatty acid. Following incubation, the reaction was stopped with the addition of 20 mM of EGTA. Lysophospholipid analysis by mass spectrometry was carried out as described (Bollinger et al. 2010). Samples of sPLA2-IIA-treated mitochondria (200 μl) was mixed with 800 μl of chloroform/methanol (2/1) followed by the addition of 15 μl of internal standard mixture (Bollinger et al. 2010 B). Samples were extracted as described and analyzed by combined liquid chromatography/tandem mass spectrometry (Bollinger et al. 2010). Fatty acids were analyzed by conversion to their AMPP amide derivatives and then analyzed by combined liquid chromatography/tandem mass spectrometry.

Assay [5] concerns mitochondria. Kind of assay: Scanning electron microscopy of mitochondria incubated with sPLA2-IIA. Also noted: species or system mouse. The note with it: scanning electron micrographs. The method, then:
(§3) Samples were fixed with 2.5% glutaraldehyde for at least 24 h then processed for standard dehydration. Briefly, samples were first washed (3×10 min) with sodium cacodylate buffer (0.1 M, pH 7.3) then fixed with osmium tetroxide (1% in sodium cacodylate buffer) for 90 min. Samples were washed again (3×10 min) in sodium cacodylate buffer and subsequently processed for alcohol dehydration steps (50, 70, 95 and 100% EtOH, 10 min each steps). Samples were then dipped in 100% EtOH for 40 and 10 min, and air-dried overnight. Samples were then coated with palladium and observed with a JEOL 6360LV scanning electron microscope (Tokyo, Japan).

The test system of assay [6] is mitochondria. Kind of assay: Mitochondrial DNA release after incubation with sPLA2-IIA (Sytox Green). Format: biochemical, mouse. The note with it: 0.2 mg/mL, 30 minutes at 37° C., n=6. The method, then: Mitochondria were seeded at 5×10^8 mitochondria/mL (Tyrode Buffer, pH 7.4, +5 mM CaCl2) in a flat bottom well plate (Costar, Corning). Human recombinant sPLA2-IIA (5 μg/ml) or diluent (PBS) was added and samples were then incubated for 30 min at 37° C. Nucleic acid stain Sytox® Green (2.5 μM, Invitrogen) was added to the mix and incubated for 10 min at room temperature. Fluorescence was obtained with a Tecan apparatus. To calculate the percentage of mitochondrial DNA released in the milieu, Triton X-100 (0.1% PBS) lysis of an equivalent amount of mitochondria (5×10^8 mitochondria/ml) was performed, to determine the total amount of mitochondrial DNA present per well.

Assay [7] has as its system freshly isolated human neutrophil. Briefly: Scanning electron microscopy of human neutrophils with mitochondria and sPLA2-IIA. Format: cell-based. The note with it: mitochondria with human neutrophils, 30-minute incubation with sPLA2-IIA; n=3. The method, then:
as §3

The test system of a further assay is C57BL/6N mice. Briefly: Air pouch model, cytokine production. Format: in vivo, mouse. The note with it: injected into the air pouch of C57BL/6N mice, 4 hours; n=7. The method, then:
Briefly, sterile air was subcutaneous injected on days 0 and 3. Tumor necrosis factor-α (50 ng) was injected into the pouch on day 6. On day 7, mitochondrial membrane hydrolysis products ([…] of 5×10^8 mitochondria treated with sPLA2-IIA), diluent (PBS), sPLA2-IIA, or mitochondria alone were injected in the air pouch. After 4 hours, the air pouch was washed with 1.2 mL PBS. Cytokines were quantified using the BD Cytometric Bead Array System (CBA) (BD Biosciences) by flow cytometry on a BD FACS Canto II and analyzed using FCAP Array Software v3.0.

For the molecule `C[C@H]1C/C=C/[C@H]2[C@@H]3O[C@]3(C)[C@@H](C)[C@H]3[C@H](Cc4ccccc4)NC(=O)[C@]32OC(=O)O/C=C/[C@@](C)(O)C1=O` [cytochalasin E], in [1], the “Mitochondrial release (freeMito, mitoMPs, MPs) from thrombin-activated platelets” value is “significantly reduced”.

In the case of `O=C1NC(=O)/C(=C/c2ccc(C(=O)NC[C@@H]3C[C@@H](SC(c4ccccc4)(c4ccccc4)c4ccccc4)CN3C(=O)c3ccccc3C(=O)c3ccc(F)cc3F)cc2)S1` [pyrrophenone], the “LTB4 production (5-LO products) by neutrophils” value with human neutrophils [2] was “takes place even in presence”. Regarding `C=C1[C@@H](C)[C@H]2[C@H](Cc3ccccc3)NC(=O)[C@]23[C@H](OC(C)=O)/C=C/[C@@](C)(O)C(=O)[C@@H](C)C/C=C/[C@H]3[C@@H]1O` [cytochalasin D], in assay [1], the “Mitochondrial release (freeMito, mitoMPs, MPs) from thrombin-activated platelets” value was “significantly reduced”. As to thrombin, in the assay with platelets, the “release of extracellular freeMitos, mitoMPs and MPs” value (“release of extracellular freeMitos” below) is recorded as “trigger the release”. As to `C/C1=C/C(=O)O[C@@H]2C[C@@H](CC[C@H](C)/C=C\C=C\CC1)O[C@@](O)([C@@H]1CSC(=O)N1)C2` [latrunculin A], the “Mitochondrial release (freeMito, mitoMPs, MPs) from thrombin-activated platelets” value in assay [1] is recorded as “significantly reduced”. For `CCCCCCCCCCCCCC(=O)O[C@@H]1[C@@H](C)[C@@]2(O)[C@@H](C=C(CO)C[C@]3(O)C(=O)C(C)=C[C@@H]23)[C@@H]2C(C)(C)[C@]12OC(C)=O` [PMA, phorbol 12-myristate 13-acetate], the “release of extracellular freeMitos” value with platelets is listed as “trigger the release”.

As for `CCCCC/C=C\C/C=C\C/C=C\C/C=C\CCCC(=O)O` [arachidonic acid], in the assay with human neutrophils [3] (human neutrophils), the “inducing NETosis (hydrolytic products derived from sPLA2-IIA activity)” value is recorded as “highly potent”. For `C=C1[C@@H](C)[C@H]2[C@H](Cc3ccccc3)NC(=O)[C@]23OC(=O)/C=C/[C@H](O)CCC[C@@H](C)C/C=C/[C@H]3[C@@H]1O` [cytochalasin B], the “Mitochondrial release (freeMito, mitoMPs, MPs) from thrombin-activated platelets” value in assay [1] is “significantly reduced”. As to collagen, the “release of extracellular freeMitos” value in the assay with platelets is “trigger the release”.

B1: sPLA2-IIA: human recombinant secreted phospholipase A2 group IIA (protein, UniProt P14555 21-144, looked up)
Phospholipase A2, membrane …: NLVNFHRMIKLTTGKEAALSYGFYGCHCGVGGRGSPKDATDRCCVTHDCCYKRLEKRGCGTKFLSYKFSNSGSRITCAKQDSCRSQLCECDKAAATCFARNKTTYNKKYQYYSNKHCRGSTPRC
Turning to B1, the “LTB4 production (5-LO products) by neutrophils” value with human neutrophils [2] was “copious amounts”. Besides, the “binding of sPLA2-IIA to mitochondria” value in the assay on mitochondria [4] is “binds mitochondria”. Moreover, the “release of lysophospholipids and free fatty acids from mitochondria” value in the assay with mitochondrial membranes was “release of various lysophospholipids and free fatty acids”. The mitochondrial structural integrity entry in the assay with mitochondria [5] is “severely affects mitochondrial structural integrity”. The mtDNA extrusion result with mitochondria [6] is given as “amplified”. Moreover, the neutrophil structural change in [7] came out at 29.2±2.11%. Also, the “NET formation by mitochondria” value in the assay with human neutrophils [3] (human neutrophils with mitochondria, sPLA2-IIA 0.1 μg/ml, 2 h at 37° C.) is “significantly enhances”. In addition, the “production of IL-1b and IL-6” value with C57BL/6N mice was “modest cytokine production”.
